Laboratory results from article PMC7692993 (Journal for Immunotherapy of Cancer, 2020).

What was measured:
[1] = molecular target: T1, CC chemokine receptor 4 (CCR4) (Mus musculus, UniProt P51680); test: inhibition of CCL22-driven chemotaxis of mouse iTreg in […] serum; type: cell-based
T1 sequence (P51680 1-360): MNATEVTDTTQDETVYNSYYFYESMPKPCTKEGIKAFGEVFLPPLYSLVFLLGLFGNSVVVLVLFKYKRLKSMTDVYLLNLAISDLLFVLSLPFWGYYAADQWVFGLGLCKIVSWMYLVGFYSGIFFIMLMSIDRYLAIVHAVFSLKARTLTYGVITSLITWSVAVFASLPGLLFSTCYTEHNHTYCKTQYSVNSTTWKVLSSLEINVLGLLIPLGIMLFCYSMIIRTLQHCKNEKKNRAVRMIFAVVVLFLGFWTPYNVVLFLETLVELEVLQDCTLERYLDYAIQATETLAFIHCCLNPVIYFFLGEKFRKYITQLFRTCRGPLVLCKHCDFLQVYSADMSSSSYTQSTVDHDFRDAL

[2] = molecular target: T2, CC chemokine receptor 4 (CCR4) (Homo sapiens, UniProt P51679); test: inhibition of CCL22-driven chemotaxis of human iTreg in […] serum; type: cell-based
T2 sequence (P51679 1-360): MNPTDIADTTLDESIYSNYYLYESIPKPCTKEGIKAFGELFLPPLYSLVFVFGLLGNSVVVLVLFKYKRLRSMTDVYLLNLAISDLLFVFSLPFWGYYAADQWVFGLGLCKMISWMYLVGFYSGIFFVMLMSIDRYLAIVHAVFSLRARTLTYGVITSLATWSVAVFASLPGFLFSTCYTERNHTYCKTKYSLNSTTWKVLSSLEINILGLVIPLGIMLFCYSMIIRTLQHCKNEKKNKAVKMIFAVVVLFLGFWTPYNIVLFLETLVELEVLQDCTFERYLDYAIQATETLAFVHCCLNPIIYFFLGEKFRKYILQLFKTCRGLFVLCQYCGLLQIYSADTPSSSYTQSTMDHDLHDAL

**Q.** Which results are given for C[C@H](c1ccc(Cl)cc1Cl)n1nc(C#N)c2ncc(N3CC([C@H]4CCCN(CCO)C4)C3)nc21 [CCR4-351]?
**A.** IC50 [1]: ~0.04 µM; IC50 [2]: ~0.04 µM
